Assay results as given in patent publication US20260007681A1, “INDOLE DERIVATIVES AS ESTROGEN RECEPTOR DEGRADERS” (REGENTS OF THE UNIVERSITY OF MICHIGAN, priority 2022, published 2026).

Molecular target: ER (Homo sapiens (Human), UniProt P03372)
Assay: Western blot analysis (Compounds B1-B278)
Type: cell-based
Settings: ER degradation by traditional Western blot; DC50 classes
Procedure: Western Blot Analysis. The cells that are treated with the compounds are lysed in Radioimmunoprecipitation Assay Protein Lysis and Extraction Buffer (e.g., 25 mmol/L Tris.HCl, pH 7.6, 150 mmol/L NaCl, 1% Nonidet P-40, 1% sodium deoxycholate, and 0.1% sodium dodecyl sulfate) containing proteinase inhibitor cocktail. Equal amounts of total protein are electrophoresed through 10% SDS-polyacrylamide gels after determination of protein concentration by BCA assay. The separated protein bands are transferred onto PVDF membranes and blotted against different antibodies. The blots are scanned, and the band intensities are quantified (e.g., by using GelQuant.NET software provided by biochemlabsolutions.com). The relative mean intensity of target proteins is expressed after normalization to the intensity of glyceraldehyde-3-phosphate dehydrogenase bands.
Western Blot Analysis. Western blot analysis was performed essentially as described previously. The cells treated with indicated compounds were lysed in Radioimmunoprecipitation Assay Protein Lysis and Extraction Buffer (25 mmol/L Tris.HCl, pH 7.6, 150 mmol/L NaCl, 1% Nonidet P-40, 1% sodium deoxycholate, and 0.1% sodium dodecyl sulfate) containing proteinase inhibitor cocktail (Roche Diagnostics, Mannheim, Germany). Equal amounts of total protein were electrophoresed through 10% SDS-polyacrylamide gels after determination of protein concentration by BCA assay (Fisher Scientific, Pittsburgh, PA). The separated protein bands were transferred onto PVDF membranes (GE Healthcare Life Sciences, Marlborough, MA) and blotted against different antibodies, as indicated. The blots were scanned, and the band intensities were quantified using GelQuant.NET software provided by biochemlabsolutions.com. The relative mean intensity of target proteins was expressed after normalization to the intensity of glyceraldehyde-3-phosphate dehydrogenase bands.

Chain of ER (P03372 whole entry): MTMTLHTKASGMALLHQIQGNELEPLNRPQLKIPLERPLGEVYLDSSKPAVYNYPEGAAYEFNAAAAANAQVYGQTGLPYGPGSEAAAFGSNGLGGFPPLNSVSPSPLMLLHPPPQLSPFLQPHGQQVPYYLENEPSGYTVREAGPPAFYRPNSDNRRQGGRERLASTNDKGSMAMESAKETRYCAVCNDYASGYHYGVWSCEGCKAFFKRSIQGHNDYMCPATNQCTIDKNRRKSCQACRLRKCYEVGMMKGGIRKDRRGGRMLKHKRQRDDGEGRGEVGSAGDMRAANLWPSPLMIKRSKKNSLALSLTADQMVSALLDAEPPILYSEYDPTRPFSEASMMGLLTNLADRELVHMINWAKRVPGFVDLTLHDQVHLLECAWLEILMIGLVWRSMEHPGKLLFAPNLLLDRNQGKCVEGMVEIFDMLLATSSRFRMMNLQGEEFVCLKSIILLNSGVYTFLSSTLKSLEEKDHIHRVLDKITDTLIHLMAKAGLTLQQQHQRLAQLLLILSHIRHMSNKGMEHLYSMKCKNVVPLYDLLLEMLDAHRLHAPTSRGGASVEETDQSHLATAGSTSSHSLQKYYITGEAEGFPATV

Structure (SMILES)	Traditional Western Degradation Potency
C[C@@H]1Cc2c([nH]c3ccccc23)[C@@H](c2c(F)cc(N3CCN(CCN4Cc5cc6c(cc5C4)C(=O)N(C4CCC(=O)NC4=O)C6)CC3)cc2F)N1CC(F)F (stereo partly drawn) [Compound B5, 3-(6-(2-(4-(4-((1R,3R)-2-(2,2-difluoroethyl)-3-methyl-2,3,4,9-tetrahydro-1H-pyrido[3,4-b]indol-1-yl)-3,5-difluorophenyl)piperazin-1-yl)ethyl)-1-oxo-3,5,6,7-tetrahydropyrrolo[3,4-f]isoindol-2(1H)-yl)piperidine-2,6-dione]	B (“B”: 10-100 nM)
C[C@@H]1Cc2c([nH]c3ccccc23)[C@@H](c2c(F)cc(N3CCC(N4CC(CC(=O)N5Cc6cc7c(cc6C5)C(=O)N(C5CCC(=O)NC5=O)C7=O)C4)CC3)cc2F)N1CC(F)F (stereo partly drawn) [Compound B6, 6-(2-(1-(1-(4-((1R,3R)-2-(2,2-difluoroethyl)-3-methyl-2,3,4,9-tetrahydro-1H-pyrido[3,4-b]indol-1-yl)-3,5-difluorophenyl)piperidin-4-yl)azetidin-3-yl)acetyl)-2-(2,6-dioxopiperidin-3-yl)-6,7-dihydropyrrolo[3,4-f]isoindole-1,3(2H,5H)-dione]	C (“C”: >100 nM)
C[C@@H]1Cc2c([nH]c3ccccc23)[C@@H](c2c(F)cc(N3CCC(N4CC(CC(=O)N5Cc6cc7c(cc6C5)C(=O)N(C5CCC(=O)NC5=O)C7)C4)CC3)cc2F)N1CC(F)F (stereo partly drawn) [Compound B7, 3-(6-(2-(1-(1-(4-((1R,3R)-2-(2,2-difluoroethyl)-3-methyl-2,3,4,9-tetrahydro-1H-pyrido[3,4-b]indol-1-yl)-3,5-difluorophenyl)piperidin-4-yl)azetidin-3-yl)acetyl)-1-oxo-3,5,6,7-tetrahydropyrrolo[3,4-f]isoindol-2(1H)-yl)piperidine-2,6-dione]	B (“B”: 10-100 nM)
C[C@@H]1Cc2c([nH]c3ccccc23)[C@@H](c2c(F)cc(N3CC4(CN(CC(=O)N5Cc6cc7c(cc6C5)C(=O)N(C5CCC(=O)NC5=O)C7)C4)C3)cc2F)N1CC(F)F (stereo partly drawn) [Compound B8, 3-(6-(2-(6-(4-((1R,3R)-2-(2,2-difluoroethyl)-3-methyl-2,3,4,9-tetrahydro-1H-pyrido[3,4-b]indol-1-yl)-3,5-difluorophenyl)-2,6-diazaspiro[3.3]heptan-2-yl)acetyl)-1-oxo-3,5,6,7-tetrahydropyrrolo[3,4-f]isoindol-2(1H)-yl)piperidine-2,6-dione]	A (“A”: <10 nM)
C[C@@H]1Cc2c([nH]c3ccccc23)[C@@H](c2c(F)cc(N3CC4(CCN(C(=O)CN5Cc6cc7c(cc6C5)C(=O)N(C5CCC(=O)NC5=O)C7)C4)C3)cc2F)N1CC(F)F (stereo partly drawn) [Compound B9, 3-(6-(2-(2-(4-((1R,3R)-2-(2,2-difluoroethyl)-3-methyl-2,3,4,9-tetrahydro-1H-pyrido[3,4-b]indol-1-yl)-3,5-difluorophenyl)-2,6-diazaspiro[3.4]octan-6-yl)-2-oxoethyl)-1-oxo-3,5,6,7-tetrahydropyrrolo[3,4-f]isoindol-2(1H)-yl)piperidine-2,6-dione]	A (“A”: <10 nM)
C[C@@H]1Cc2c([nH]c3ccccc23)[C@@H](c2c(F)cc(N3CCC4(CCN(C(=O)CN5Cc6cc7c(cc6C5)C(=O)N(C5CCC(=O)NC5=O)C7)C4)C3)cc2F)N1CC(F)F (stereo partly drawn) [Compound B11, 3-(6-(2-(7-(4-((1R,3R)-2-(2,2-difluoroethyl)-3-methyl-2,3,4,9-tetrahydro-1H-pyrido[3,4-b]indol-1-yl)-3,5-difluorophenyl)-2,7-diazaspiro[4.4]nonan-2-yl)-2-oxoethyl)-1-oxo-3,5,6,7-tetrahydropyrrolo[3,4-f]isoindol-2(1H)-yl)piperidine-2,6-dione]	B (“B”: 10-100 nM)
C[C@@H]1Cc2c([nH]c3ccccc23)[C@@H](c2c(F)cc(N3CC4(CCCN(C(=O)CN5Cc6cc7c(cc6C5)C(=O)N(C5CCC(=O)NC5=O)C7)C4)C3)cc2F)N1CC(F)F (stereo partly drawn) [Compound B12, 3-(6-(2-(2-(4-((1R,3R)-2-(2,2-difluoroethyl)-3-methyl-2,3,4,9-tetrahydro-1H-pyrido[3,4-b]indol-1-yl)-3,5-difluorophenyl)-2,6-diazaspiro[3.5]nonan-6-yl)-2-oxoethyl)-1-oxo-3,5,6,7-tetrahydropyrrolo[3,4-f]isoindol-2(1H)-yl)piperidine-2,6-dione]	C (“C”: >100 nM)
C[C@@H]1Cc2c([nH]c3ccccc23)[C@@H](c2c(F)cc(N3CCCC4(CN(C(=O)CN5Cc6cc7c(cc6C5)C(=O)N(C5CCC(=O)NC5=O)C7)C4)C3)cc2F)N1CC(F)F (stereo partly drawn) [Compound B13, 3-(6-(2-(6-(4-((1R,3R)-2-(2,2-difluoroethyl)-3-methyl-2,3,4,9-tetrahydro-1H-pyrido[3,4-b]indol-1-yl)-3,5-difluorophenyl)-2,6-diazaspiro[3.5]nonan-2-yl)-2-oxoethyl)-1-oxo-3,5,6,7-tetrahydropyrrolo[3,4-f]isoindol-2(1H)-yl)piperidine-2,6-dione]	B (“B”: 10-100 nM)
C[C@@H]1Cc2c([nH]c3ccccc23)[C@@H](c2c(F)cc(N3CC4(CN(C(=O)CN5Cc6cc7c(cc6C5)C(=O)N(C5CCC(=O)NC5=O)C7)C4)C3)cc2F)N1CC(F)F (stereo partly drawn) [Compound B14, 3-(6-(2-(6-(4-((1R,3R)-2-(2,2-difluoroethyl)-3-methyl-2,3,4,9-tetrahydro-1H-pyrido[3,4-b]indol-1-yl)-3,5-difluorophenyl)-2,6-diazaspiro[3.3]heptan-2-yl)-2-oxoethyl)-1-oxo-3,5,6,7-tetrahydropyrrolo[3,4-b]isoindol-2(1H)-yl)piperidine-2,6-dione]	A (“A”: <10 nM)
C[C@@H]1Cc2c([nH]c3ccccc23)[C@@H](c2c(F)cc(N3CCC4(CN(C(=O)CN5Cc6cc7c(cc6C5)C(=O)N(C5CCC(=O)NC5=O)C7)C4)C3)cc2F)N1CC(F)F (stereo partly drawn) [Compound B15, 3-(6-(2-(6-(4-((1R,3R)-2-(2,2-difluoroethyl)-3-methyl-2,3,4,9-tetrahydro-1H-pyrido[3,4-b]indol-1-yl)-3,5-difluorophenyl)-2,6-diazaspiro[3.4]octan-2-yl)-2-oxoethyl)-1-oxo-3,5,6,7-tetrahydropyrrolo[3,4-f]isoindol-2(1H)-yl)piperidine-2,6-dione]	A (“A”: <10 nM)
C[C@@H]1Cc2c([nH]c3ccccc23)[C@@H](c2c(F)cc(N3CC4(CCN(CC(=O)N5Cc6cc7c(cc6C5)C(=O)N(C5CCC(=O)NC5=O)C7)C4)C3)cc2F)N1CC(F)F (stereo partly drawn) [Compound B16, 3-(6-(2-(2-(4-((1R,3R)-2-(2,2-difluoroethyl)-3-methyl-2,3,4,9-tetrahydro-1H-pyrido[3,4-b]indol-1-yl)-3,5-difluorophenyl)-2,6-diazaspiro[3.4]octan-6-yl)acetyl)-1-oxo-3,5,6,7-tetrahydropyrrolo[3,4-f]isoindol-2(1H)-yl)piperidine-2,6-dione]	A (“A”: <10 nM)
C[C@@H]1Cc2c([nH]c3ccccc23)[C@@H](c2c(F)cc(N3CC4(CCN(CC(=O)N5Cc6cc7c(cc6C5)C(=O)N(C5CCC(=O)NC5=O)C7=O)C4)C3)cc2F)N1CC(F)F (stereo partly drawn) [Compound B17, 6-(2-(2-(4-((1R,3R)-2-(2,2-difluoroethyl)-3-methyl-2,3,4,9-tetrahydro-1H-pyrido[3,4-b]indol-1-yl)-3,5-difluorophenyl)-2,6-diazaspiro[3.4]octan-6-yl)acetyl)-2-(2,6-dioxopiperidin-3-yl)-6,7-dihydropyrrolo[3,4-f]isoindole-1,3(2H,5H)-dione]	B (“B”: 10-100 nM)
C[C@@H]1Cc2c([nH]c3ccccc23)[C@@H](c2c(F)cc(N3CCC4(CCN(CC(=O)N5Cc6cc7c(cc6C5)C(=O)N(C5CCC(=O)NC5=O)C7=O)C4)C3)cc2F)N1CC(F)F (stereo partly drawn) [Compound B19, 6-(2-(7-(4-((1R,3R)-2-(2,2-difluoroethyl)-3-methyl-2,3,4,9-tetrahydro-1H-pyrido[3,4-b]indol-1-yl)-3,5-difluorophenyl)-2,7-diazaspiro[4.4]nonan-2-yl)acetyl)-2-(2,6-dioxopiperidin-3-yl)-6,7-dihydropyrrolo[3,4-f]isoindole-1,3(2H,5H)-dione]	C (“C”: >100 nM)
C[C@@H]1Cc2c([nH]c3ccccc23)[C@@H](c2c(F)cc(N3CC4(CCN(C(=O)CN5Cc6cc7c(cc6C5)C(=O)N(C5CCC(=O)NC5=O)C7=O)C4)C3)cc2F)N1CC(F)F (stereo partly drawn) [Compound B20, 6-(2-(2-(4-((1R,3R)-2-(2,2-difluoroethyl)-3-methyl-2,3,4,9-tetrahydro-1H-pyrido[3,4-b]indol-1-yl)-3,5-difluorophenyl)-2,6-diazaspiro[3.4]octan-6-yl)-2-oxoethyl)-2-(2,6-dioxopiperidin-3-yl)-6,7-dihydropyrrolo[3,4-f]isoindole-1,3(2H,5H)-dione]	A (“A”: <10 nM)
